{"source": "patent US20190152986A1", "about": "“CRYSTAL FORM A OF MILBEMYCIN A3 OXIME AND PREPARATION METHOD THEREOF” (Zhejiang Hisun Pharmaceutical Co., Ltd., priority 2016, published 2019)", "type_in_all_cases": "physicochemical", "key": {"[1]": {"assay": "Protection from light (black PE bag and aluminum foil bag in light box, 18 hrs)", "description": "About 600 mg of the sample was weighed, placed evenly in a weighing bottle, the weighing bottle containing the sample was put into a black PE bag, and then the PE bag was packaged with an aluminum foil bag, the aluminum foil bag was placed into a light box with an illuminance of 600 w/m^2. After illumination of 18 hrs, taken out, placed into a desiccator and cooled to room temperature, and the weight loss on drying was measured.\n(§1) The HPLC conditions for content determination are as follows: […]"}, "[2]": {"assay": "Degradation stability test: original sample and overall comparison (HPLC content determination)", "source_text": "Meanwhile, the degradation stabilities of A3/A4 oxime and the crystal form A of A3 oxime were compared in the invention, and the degradation conditions are as follows:\nas §1"}, "[3]": {"assay": "Oxidative degradation (30% hydrogen peroxide, 24 hours)", "description": "1) Oxidative Degradation A sample of 50 mg was weighed accurately and added to a 100.0 ml volumetric flask, dissolved by adding 10 ml methanol, 1.0 ml of 30% hydrogen peroxide was added, standing for 24 hours, then was diluted to the scale with methanol.\nas §1"}, "[4]": {"assay": "Photodegradation (light box, 600 w/m^2, 24 hrs)", "description": "According to the ICH requirement, the total illuminance requirement of 200 w·hr/m^2 and 1,200,000 lux·hr is required for photodegradation. If the illuminance is 600 w/m^2, the ICH requirement is met, and the illumination time needs at least 9 hrs.\nApproximately 600 mg of the sample was weighed, placed evenly in a weighing bottle, placed into a light box with an illuminance of 600 w/m^2 and illuminated for 24 hrs, taken out, placed into a desiccator and cooled to room temperature, and the weight loss on drying was measured.\nas §1"}, "[5]": {"settings": "Protection from light: PE bag and aluminum foil bag, light box 600 w/m^2, 18 hrs"}, "[6]": {"settings": "Oxidation: 30% hydrogen peroxide in methanol, standing for 24 hours"}, "[7]": {"settings": "Illumination: 600 w/m^2 for 24 hrs"}}, "data": [{"smiles": "CC1=C[C@H]2C(=O)O[C@H]3C[C@@H](C/C=C(\\C)C[C@@H](C)/C=C/C=C4\\CO[C@H](/C1=N\\O)[C@@]42O)O[C@@]1(CC[C@H](C)[C@@H](C)O1)C3", "note": "[crystal form A of A3 oxime, Milbemycin A3 oxime]", "values": [{"measurement": "Total Impurity increment", "setting": "[1]; Protection from light, versus original sample", "value": 0.0156, "unit": "%"}, {"measurement": "Content", "setting": "[1]; [5]", "value": 96.9, "unit": "%"}, {"measurement": "Total Impurity", "setting": "[1]; [5]", "value": 0.3371, "unit": "%"}, {"measurement": "Content", "setting": "[2]; Original sample, HPLC", "value": 98.1, "unit": "%"}, {"measurement": "Total Impurity", "setting": "[2]; Original sample, HPLC", "value": 0.3215, "unit": "%"}, {"measurement": "stability (degradation stability test results)", "setting": "[2]; overall comparison of Table 2", "value": "significantly better than that of A3/A4 oxime"}, {"measurement": "Total Impurity increment", "setting": "[3]; Oxidation, versus original sample", "value": "−0.0847", "unit": "%"}, {"measurement": "Content", "setting": "[3]; [6]", "value": 98.3, "unit": "%"}, {"measurement": "Total Impurity", "setting": "[3]; [6]", "value": 0.2368, "unit": "%"}, {"measurement": "Total Impurity increment", "setting": "[4]; Illumination, versus original sample", "value": 1.2485, "unit": "%"}, {"measurement": "Content", "setting": "[4]; [7]", "value": 96.8, "unit": "%"}, {"measurement": "Total Impurity", "setting": "[4]; [7]", "value": 1.57, "unit": "%"}]}]}
